In patent publication US20070060651A1, “Compositions and methods for improving functional vascular cellular survival integrity and reducing apoptosis in ischemia” (NESTEC S.A., priority 2005, published 2007):

Legend:
[1] = tested on: growth factors and anti-inflammatory proteins; assay: Expression of growth factors and anti-inflammatory proteins in dogs on supplemental arginine; assay type: in vivo, dog; conditions: dietary supplementation
[2] = tested on: transient cerebral ischemia in an ovariectomized rat model; assay: Cerebral ischemia-induced apoptosis by TUNEL staining after tMCA occlusion; assay type: in vivo; conditions: average of three brain regions, normalized to DAPI total cells; vs control; FIG. 3
[3] = tested on: transient cerebral ischemia in an ovariectomized rat model; assay: Ischemic lesion (infarct) volume by TTC staining after transient middle cerebral artery (tMCA) occlusion; assay type: in vivo; conditions: all rats; vs control diet; 60 min tMCA occlusion, 24 hours reperfusion; FIG. 1
Protocol: Animals. Female Charles Rivers Sprague-Dawley rats (250 g, Wilmington, Mass.) were acclimatized to animal facilities three days prior to surgery with a 12 hour light-dark cycle. Bilateral ovariectomy was performed 2 weeks before diet feeding began. Four weeks after the start of diet feeding, transient middle cerebral artery (tMCA) occlusion under anesthesia was performed following intraperitoneal (i.p.) injection of ketamine (60 mg/kg) and xylazine (10 mg/kg).
Diet and Hormone Administration. Fourteen to 15 rats per group were randomly assigned to one of five treatment groups. These groups were as follows: […]
All diets were fed ad libitum to the rats for four weeks. […] Also once per week, body weights and food intake were determined. […]
Middle cerebral artery occlusion and samples preparation. […] Rectal temperature was monitored and maintained between 36.5 and 37° C. with a heating pad throughout the procedure. […]
Some animals were eliminated from the study during the protocol. The number of animals quantified for lesion volume ranged from 12 to 15 per group.
Statistical methods. Results were analyzed with one-way analysis of variance (ANOVA) using Prism software(Graphpad Inc; San Diego, Calif.). The significance of differences among groups was determined by one-way ANOVA followed by Tukey's multiple comparison tests. All values were expressed as mean +/−SEM.

Structure (SMILES) | expression of multiple growth factors and anti-inflammatory proteins [1] | TUNEL staining / TUNEL-positive cell counts (apoptosis), in words [2] | effect on infarct size / mean infarct volume (in words) [3]
N=C(N)NCCC[C@H](N)C(=O)O [arginine, L-arginine] | increased expression of multiple growth factors and anti-inflammatory proteins in a dose-dependent manner |  | 
C[C@]12CC[C@@H]3c4ccc(O)cc4CC[C@H]3[C@@H]1CC[C@@H]2O [estradiol, 17 β-estradiol] |  | substantial reduction in TUNEL staining | reduced infarct size
